From ChEMBL document CHEMBL5726851, “2-oxo-imidazopyridines as reversible BTK inhibitors and uses thereof” (2019)

Biological target: Tyrosine-protein kinase BTK (Homo sapiens, UniProt Q06187)
Assay: Microfluidic Off-Chip Mobility Shift Assay Protocol for Potency Assessment Against BTK Enzyme: Briefly, 2.5× stocks of full-length human BTK (08-080) from CarnaBio USA, Inc., Natick, Mass., 1.6×ATP and appropriate kinKDR peptide substrate (FITC-AHA-[…]-NH2; developed in-house) were prepared in kinase reaction buffer consisting of 25 mM MgCl2, 0.015% Brij-35 (30%), 100 mM HEPES, pH 7.5, and 10 mM DTT. 5 uL of enzyme buffer and 7.5 uL of ATP/kinKDR peptide substrate mix were added to Matrix (#115304) 384-well, sterile, polypropylene plates (Thermo Fisher Scientific, Hudson, N.H.) with 125 nL of serially diluted compounds prepared in 100% DMSO, and incubated for 90 min. at 27° C. Following the incubation period, reactions were stopped by adding 60 uL stop buffer consisting of 100 mM HEPES, pH 7.5, 0.015% Brij-35 (30%), 0.277% Coating Reagent #3 (Caliper Life Sciences, Mountain View, Calif.), 5% DMSO. Stopped reactions were monitored at −2 PSI, −3000 V/−700 V in a LabChip 3000 plate reader from Caliper Life Sciences, a PerkinElmer Company (Hopkinton, Mass.), and the activity was measured by off-chip mobility shift assay measuring the charge/mass difference between substrate and product resulting from peptide phosphorilation. IC50 and efficacy were determined by plotting log [Inhibitor] vs. % Activity in GeneData Screener (Basel, Switzerland).

Chain of Tyrosine-protein kinase BTK (Q06187 whole entry): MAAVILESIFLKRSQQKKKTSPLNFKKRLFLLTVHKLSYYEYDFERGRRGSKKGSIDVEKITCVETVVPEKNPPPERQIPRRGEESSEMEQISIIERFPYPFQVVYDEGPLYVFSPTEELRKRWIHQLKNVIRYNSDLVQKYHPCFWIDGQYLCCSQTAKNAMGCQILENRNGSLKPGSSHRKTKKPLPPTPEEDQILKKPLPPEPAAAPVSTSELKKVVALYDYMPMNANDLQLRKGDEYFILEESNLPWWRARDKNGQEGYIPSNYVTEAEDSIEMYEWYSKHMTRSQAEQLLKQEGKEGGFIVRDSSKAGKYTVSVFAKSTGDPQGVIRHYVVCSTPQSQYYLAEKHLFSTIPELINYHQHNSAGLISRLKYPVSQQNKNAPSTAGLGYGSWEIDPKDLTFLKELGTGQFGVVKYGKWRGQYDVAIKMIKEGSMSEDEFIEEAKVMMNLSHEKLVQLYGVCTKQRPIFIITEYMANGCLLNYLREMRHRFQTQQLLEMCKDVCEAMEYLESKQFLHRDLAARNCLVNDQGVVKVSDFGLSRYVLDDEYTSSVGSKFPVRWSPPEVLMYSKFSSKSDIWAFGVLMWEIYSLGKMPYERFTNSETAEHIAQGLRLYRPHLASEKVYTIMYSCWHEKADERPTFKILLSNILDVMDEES

IC50: < 10 nM
SMILES: CC(C)(C)c1cc(C(=O)NC2CCCCc3cc(-c4ccnc5[nH]c(=O)[nH]c45)ccc32)on1 (stereo unspecified)
